In brackets after ≈: the same amount, converted by molar mass. Several values for one entry are separate records, joined by “and”; a condition that tells them apart may be missing. Identical values can stand only once. Activity calls are given as the source filed them. No cut-off for these calls is given here.

Here are results for four compounds from ChEMBL document CHEMBL5042549, “Discovery of Inhibitors of the Lipopolysaccharide Transporter MsbA: From a Screening Hit to Potent Wild-Type Gram-Negative Activity” (J Med Chem, 2022).

Data set [1] is described as follows: Lipophilicity, logD of compound by shake flask method. To be noted: octanol/water. It is filed as physicochemical.
The nature of data set [2]: Inhibition of Escherichia coli MsbA preincubated for 10 mins followed by ATP addition and incubated for 1 hr by fluorescence polarization assay.
The test system of data set [3] is Escherichia coli. Put plainly: Antibacterial activity against wild type Escherichia coli CFT073 (ATCC 700928) assessed as bacterial growth by broth microdilution assay. It is filed as functional.
The subject of data set [4] is Klebsiella pneumoniae. The data set is described as follows: Antibacterial activity against wild type Klebsiella pneumoniae MGH78578 (ATCC 700721) assessed as bacterial growth inhibition by broth microdilution assay. It is filed as functional.
Data set [5] relates to Enterobacter cloacae. Put plainly: Antibacterial activity against wild type Enterobacter cloacae (ATCC 13047) assessed as bacterial growth inhibition by broth microdilution assay. It is filed as functional.
Data set [6] has as its system Escherichia coli. Put plainly: Antibacterial activity against wild type Escherichia coli MG1655 msbA-cKO lptD (imp4213) expressing Escherichia coli MsbA assessed as bacterial growth inhibition by broth microdilution assay. It is filed as functional.
Data set [7] relates to Escherichia coli. The data set is described as follows: Antibacterial activity against wild type Escherichia coli MG1655 msbA-cKO lptD (imp4213) expressing Acinetobacter baumannii MsbA assessed as bacterial growth inhibition by broth microdilution assay. It is filed as functional.
For data set [8], the system named is Escherichia coli. The data set is described as follows: Selectivity ratio of MIC for Escherichia coli MG1655 msbA-cKO lptD (imp4213) […]. It is filed as functional.
Another data set deals with Acinetobacter baumannii. Put plainly: Antibacterial activity against wild type Acinetobacter baumannii (ATCC 17978) assessed as bacterial growth inhibition by broth microdilution assay. It is filed as functional.
The subject of another data set is Pseudomonas aeruginosa. The data set is described as follows: Antibacterial activity against wild type Pseudomonas aeruginosa PA14 assessed as bacterial growth inhibition by broth microdilution assay. It counts as functional.
The subject of data set [9] is Escherichia coli. The data set is described as follows: Antibacterial activity against wild type Escherichia coli CFT073 (ATCC 700928) assessed as induction of cell lysis at 50 microM by electron microscopy. It is filed as functional, organism-based.
The test system of data set [10] is Klebsiella pneumoniae. The data set is described as follows: Antibacterial activity against wild type Klebsiella pneumoniae MGH78578 (ATCC 700721) assessed as membrane stacking at 50 microM by electron microscopy. It is filed as functional, organism-based.
The subject of data set [11] is Enterobacter cloacae. Put plainly: Antibacterial activity against wild type Enterobacter cloacae (ATCC 13047) assessed as membrane stacking at 50 microM by electron microscopy. It counts as functional, organism-based.
Data set [12] can be described thus: Clearance in CD-1 mouse at 1 mg/kg, iv measured upto 8 hrs by LC-MS/MS analysis. It is filed as ADME, organism-based. The following applies: in vivo.
The nature of data set [13]: Half life in CD-1 mouse at 1 mg/kg, iv measured upto 8 hrs by LC-MS/MS analysis. The following applies: in vivo. It is filed as ADME, organism-based.
For the next data set, the system named is A549. The data set is described as follows: Cytotoxicity against human A549 cells at 50 uM. The following applies: a549, 50 µM. It counts as toxicity, cell-based.
A further data set has as its system Jurkat. Put plainly: Cytotoxicity against human Jurkat cells at 50 uM. It is filed as toxicity, cell-based.
The subject of another data set is HEK293. The data set is described as follows: Cytotoxicity against human HEK293 cells at 50 uM. It counts as toxicity, cell-based. The following applies: hek293, 50 µM.
Data set [14] concerns Escherichia coli. The data set is described as follows: Antibacterial activity against wild type Escherichia coli MG1655 carrying lptD (imp4213) assessed as bacterial growth inhibition by broth microdilution assay. It is filed as functional.

The compound `C[C@H](Oc1ccc2ccc(/C=C/c3nn[nH]n3)c(C3CC3)c2c1)c1c(Cl)cccc1Cl` had a logD in data set [1] of 4.3. Also, the IC50 in [2] came out at 3 nM. Moreover, the minimum inhibitory concentration (MIC) was 6 µM and 2.7 µg/mL with Escherichia coli [3]; 6 µM (≈ 2.71 µg/mL) in the data set with Klebsiella pneumoniae [4]; 6 µM (≈ 2.71 µg/mL) in the data set with Enterobacter cloacae [5]; 0.8 µM (≈ 0.361 µg/mL) with Escherichia coli [6]; over 71 µM with Escherichia coli [7]; over 100 µM in the data set with Acinetobacter baumannii. For the same compound, the MIC in the data set on Pseudomonas aeruginosa is over 100 µM. Moreover, in the data set on Escherichia coli [8], the Selectivity ratio was over 89. Besides, the outcome with Escherichia coli [9], with Klebsiella pneumoniae [10] and in the data set on Enterobacter cloacae [11] was Active. Moreover, the clearance in data set [12] turned out to be 8 mL/min/kg. In [13], this compound showed a half-life of 1.4 h.
As for `C[C@H](Oc1ccc2ncc(/C=C/c3nn[nH]n3)c(C(F)F)c2c1)c1c(Cl)cccc1Cl`, the logD in data set [1] stood at 3.3. This compound also yielded a 50% inhibitory concentration (IC50) in data set [2] of 8 nM. Moreover, the minimal inhibitory concentration (MIC) with Escherichia coli [3] came to 25 µM; with Klebsiella pneumoniae [4], 25 µM (≈ 11.6 µg/mL); in the data set with Enterobacter cloacae [5], 50 µM (≈ 23.1 µg/mL); in the data set with Escherichia coli [6], 1.6 µM (≈ 0.74 µg/mL); in the data set on Escherichia coli [7], 50 µM (≈ 23.1 µg/mL). Further, the Selectivity ratio with Escherichia coli [8] stood at 31. The Activity entry in the data set with A549, in the data set with Jurkat and with HEK293 was “Non-Toxic” throughout.
`C[C@H](Oc1ccc2ncc(/C=C/c3nn[nH]n3)c(C3CC3)c2c1)c1c(Cl)cccc1Cl` had a log distribution coefficient (logD) in data set [1] of 4.3. This compound gave a concentration for half-maximal inhibition (IC50) in data set [2] of 2 nM. The minimal inhibitory concentration (MIC) with Escherichia coli [3] was 12 µM; in the data set with Klebsiella pneumoniae [4] it was 12 µM (≈ 5.43 µg/mL); in the data set with Enterobacter cloacae [5], 25 µM (≈ 11.3 µg/mL); with Escherichia coli [6] it was under 0.1 µM; in the data set with Escherichia coli [7], 50 µM (≈ 22.6 µg/mL). For the same compound, the Selectivity ratio in the data set with Escherichia coli [8] is over 500. The Activity entry with A549, with Jurkat and in the data set on HEK293 was “Non-Toxic” in each case.
With `C[C@H](Oc1ccc(NC(=O)CC(=O)O)c(C2CC2)n1)c1c(Cl)ccc(F)c1Cl`, the logD in data set [1] was determined as 1.4. This compound also came in with a half-inhibitory concentration (IC50) in data set [2] of 12 nM. For the same compound, the minimal inhibitory concentration (MIC) in the data set with Escherichia coli [3] was over 100 µM; with Escherichia coli [14], 31 µM (≈ 13.2 µg/mL).
